Laboratory results: ChEMBL document CHEMBL5360649, “Potential Broad-Spectrum Antimicrobial, Wound Healing, and Disinfectant Cationic Peptide Crafted from Snake Venom” (J Med Chem, 2023)
The source made the active and inactive calls. No cut-off for these calls is given here. Bridge positions count the residues as written; N and C are the ends. Square brackets hold non-standard residues; d marks the D form. Peptide text beside a SMILES is read from it. * marks the point of attachment. ξ: configuration not given here. Heptanoyl(6-Me) = CC(C)CCCCC(=O)*; dDab = NCC[C@@H](N)C(=O)O; Orn = NCCC[C@H](N)C(=O)O; Dab = NCC[C@H](N)C(=O)O; ξP = O=C(O)C1CCCN1

Legend:
Rattus norvegicus = species: Rattus norvegicus; test: Induction of wound healing in surgically-induced Albino Wistar rat wound model inoculated with methicillin-resistant Staphylococcus aureus assessed as reduction in scarring measured after 11 days by H&E staining based analysis; type: functional; conditions: time 11.0 day
Cell membrane [1] = test: Induction of cytoplasmic membrane depolarization in Klebsiella pneumoniae assessed as increase in fluorescence intensity at 5 uM by DiSC3-5 dye based fluorescence method; type: subcellular
Cell membrane [2] = test: Induction of outer membrane permeabilization in methicillin-resistant Staphylococcus aureus incubated for 5 to 20 mins by fluorescence based NPN uptake assay; type: subcellular; conditions: time 5-20 min
Pseudomonas aeruginosa [3] = test: Induction of resistance development in Pseudomonas aeruginosa assessed as fold increase in MIC at 0.5 times of MIC incubated with compound for 12 hrs followed by replacement with fresh medium for 12 hrs and measured after 20 repeated cycles; type: functional, organism-based; conditions: time 240.0 hrs
Klebsiella pneumoniae [4] = test: Induction of resistance development in Klebsiella pneumoniae assessed as fold increase in MIC at 0.5 times of MIC incubated with compound for 12 hrs followed by replacement with fresh medium for 12 hrs and measured after 20 repeated cycles; type: functional; conditions: time 240.0 hrs
Pseudomonas aeruginosa [5] = test: Antibacterial activity against patient-derived Pseudomonas aeruginosa assessed as inhibition of bacterial growth at 25 to 100 uM incubated overnight by spotting assay; type: functional, organism-based; conditions: dose 25-100 µM
Staphylococcus aureus [6] = test: Antibacterial activity against patient-derived methicillin-resistant Staphylococcus aureus assessed as inhibition of bacterial growth at 25 to 100 uM incubated overnight by spotting assay; type: functional, organism-based; conditions: dose 25-100 µM
Klebsiella pneumoniae [7] = test: Antibacterial activity against Klebsiella pneumoniae ATCC BAA-1705 assessed as inhibition of bacterial growth at 25 to 100 uM incubated overnight by spotting assay; type: functional, organism-based; conditions: dose 25-100 µM
Escherichia coli [8] = test: Antibacterial activity against Escherichia coli ATCC CRM-11229 assessed as inhibition of bacterial growth at 25 to 100 uM incubated overnight by spotting assay; type: functional, organism-based; conditions: dose 25-100 µM
Pseudomonas aeruginosa [9] = test: Antibacterial activity against patient-derived Pseudomonas aeruginosa assessed as inhibition of bacterial growth incubated for 24 hrs by CLSI protocol based microdilution method; type: functional
Staphylococcus aureus [10] = test: Antibacterial activity against patient-derived methicillin-resistant Staphylococcus aureus assessed as inhibition of bacterial growth incubated for 24 hrs by CLSI protocol based microdilution method; type: functional
Klebsiella pneumoniae [11] = test: Antibacterial activity against Klebsiella pneumoniae ATCC BAA-1705 assessed as inhibition of bacterial growth incubated for 24 hrs by CLSI protocol based microdilution method; type: functional
Escherichia coli [12] = test: Antibacterial activity against Escherichia coli ATCC CRM-11229 assessed as inhibition of bacterial growth incubated for 24 hrs by CLSI protocol based microdilution method; type: functional

## C=CN1CCCC1=O.II
Rattus norvegicus
  Activity: inactive

## CC(C)C[C@@H]1NC(=O)[C@H](CCCN)NC(=O)[C@H](C(C)C)NC(=O)[C@@H]2CCCN2C(=O)[C@@H](Cc2ccccc2)NC(=O)[C@H](CC(C)C)NC(=O)[C@H](CCCN)NC(=O)[C@H](C(C)C)NC(=O)C2CCCN2C(=O)[C@@H](Cc2ccccc2)NC1=O (stereo partly drawn) (cyclo(L[dF]PV[Orn]L[dF][ξP]V[Orn]))
Cell membrane [1]
  Activity: Active

## CC(C)CCCCC(=O)N[C@@H](CCN)C(=O)N[C@H](C(=O)N[C@@H](CCN)C(=O)N[C@H]1CCNC(=O)[C@H]([C@@H](C)O)NC(=O)[C@H](CCN)NC(=O)[C@H](CCN)NC(=O)[C@H](CC(C)C)NC(=O)[C@@H](Cc2ccccc2)NC(=O)[C@@H](CCN)NC1=O)[C@@H](C)O ({Heptanoyl(6-Me)}-[Dab]T[Dab][Dab][dDab][dF]L[Dab][Dab]T; lactam 4-C)
Cell membrane [2]
  Activity: Active

## COLISTIN
Pseudomonas aeruginosa [3]
  fold change (FC): 2
Klebsiella pneumoniae [4]
  fold change (FC): 4

## H-LPIIKWVKKFFWRWR-OH
Pseudomonas aeruginosa [5]
  Activity: Active
Staphylococcus aureus [6]
  Activity: Active
Klebsiella pneumoniae [7]
  Activity: Active
Escherichia coli [8]
  Activity: Active
Pseudomonas aeruginosa [9]
  MIC: 10 µM
Staphylococcus aureus [10]
  MIC: 15 µM
Klebsiella pneumoniae [11]
  MIC: 16 µM
Escherichia coli [12]
  MIC: 8 µM
